Laboratory results reported in US20180370927A1, “MICROBIOCIDAL OXADIAZOLE DERIVATIVES” (SYNGENTA PARTICIPATIONS AG, priority 2015, published 2018).

Assays:
[1] = system: Puccinia recondita f. Sp. Tritici; test: Puccinia recondita f. sp. tritici / wheat / leaf disc curative (brown rust); assay type: in vivo; conditions: foliar, 200 ppm in the applied formulation, wheat leaf segments, curative (applied 1 day after inoculation), assessed 6 to 8 days after application, read-out: disease control compared to untreated control leaf disks
Method in brief: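 Wheat cv. Kanzler leaf segments on agar were inoculated with spores, kept dark at 19° C, 75% RH, then sprayed with diluted formulated compound 1 day after inoculation (curative). Incubation continued at 19° C, 75% RH, 12 h light/12 h dark, with percent disease control versus untreated scored 6 to 8 days after application.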

[2] = system: Puccinia recondita f. Sp. Tritici; test: Puccinia recondita f. sp. tritici / wheat / leaf disc preventative (brown rust); assay type: in vivo; conditions: foliar, 200 ppm in the applied formulation, wheat leaf segments, preventative, assessed 7 to 9 days after application, read-out: disease control compared to untreated control leaf disks
Method in brief: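 Wheat cv. Kanzler leaf segments on agar sprayed with formulated compound in water, inoculated with rust spores 1 day later. Incubated at 19° C, 75% rh, 12 h light/12 h dark; percent disease control versus untreated scored 7 to 9 days after application; tested at 200 ppm.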

[3] = system: Phakopsora pachyrhizi; test: Phakopsora pachyrhizi / soybean / leaf disc preventative (Asian soybean rust); assay type: in vivo; conditions: foliar, 200 ppm in the applied formulation, soybean leaf disks, assessed 12 to 14 days after application, read-out: disease control compared to untreated control leaf disks
Method in brief: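 Soybean leaf discs on water agar were sprayed with formulated compound diluted in water, then inoculated one day later with spore suspension on the lower leaf surface. Held 24-36 h dark at 20° C., 75% RH, then 12 h light/day; percent disease control versus untreated scored 12 to 14 days after application.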

[4] = system: Glomerella lacenarium (Colletotrichum lacenarium); test: Glomerella lacenarium (Colletotrichum lacenarium) liquid culture / cucumber / preventative (anthracnose); assay type: cell-based; conditions: 20 ppm in the applied formulation, liquid culture in PDB, 24° C., 3 to 4 days after application, read-out: disease control (inhibition of growth, photometric) compared to untreated control
Method in brief: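 Cryostored conidia in potato dextrose broth added to DMSO compound solution in microtiter plates, incubated at 24° C. Growth inhibition read photometrically 3 to 4 days after application, as percent control versus untreated check; compounds tested at 20 ppm.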

CO/N=C(\C)C(=O)N(Cc1ccc(-c2noc(C(F)(F)F)n2)cc1)OC [Compound 2.10, (2E)-N-methoxy-2-methoxyimino-N-[[4-[5-(trifluoromethyl)-1,2,4-oxadiazol-3-yl]phenyl]methyl] propanamide]
≥ 80%: pest or weed control at 200 ppm [1] | pest or weed control at 200 ppm [2] | pest or weed control at 200 ppm [3] | inhibition at 20 ppm [4]

CO/N=C(/C)C(=O)N(Cc1ccc(-c2noc(C(F)(F)F)n2)cc1)OC [Compound 2.11, (2Z)-N-methoxy-2-methoxyimino-N-[[4-[5-(trifluoromethyl)-1,2,4-oxadiazol-3-yl]phenyl]methyl] propanamide]
≥ 80%: pest or weed control at 200 ppm [1] | pest or weed control at 200 ppm [2] | pest or weed control at 200 ppm [3] | inhibition at 20 ppm [4]

CCON=C(C)C(=O)N(Cc1ccc(-c2noc(C(F)(F)F)n2)cc1)OC [Compound 2.12, 2-ethoxyimino-N-methoxy-N-[[4-[5-(trifluoromethyl)-1,2,4-oxadiazol-3-yl]phenyl]methyl] propanamide]
≥ 80%: pest or weed control at 200 ppm [1] | pest or weed control at 200 ppm [2] | pest or weed control at 200 ppm [3] | inhibition at 20 ppm [4]

C=CCN(Cc1ccc(-c2noc(C(F)(F)F)n2)cc1)C(=O)C(=O)N(C)C [Compound 4.25, N′-allyl-N,N-dimethyl-N′-[[4-[5-(trifluoromethyl)-1,2,4-oxadiazol-3-yl]phenyl]methyl] oxamide]
≥ 80%: pest or weed control at 200 ppm [1] | pest or weed control at 200 ppm [2] | pest or weed control at 200 ppm [3] | inhibition at 20 ppm [4]

C=CCN(Cc1ccc(-c2noc(C(F)(F)F)n2)cc1)C(=O)C(N)=O [Compound 4.26, N′-allyl-N′-[[4-[5-(trifluoromethyl)-1,2,4-oxadiazol-3-yl]phenyl]methyl] oxamide]
≥ 80%: pest or weed control at 200 ppm [1] | pest or weed control at 200 ppm [2] | pest or weed control at 200 ppm [3] | inhibition at 20 ppm [4]

CCN(Cc1ccc(-c2noc(C(F)(F)F)n2)cc1)C(=O)C(=O)N(C)C [Compound 4.27, N′-ethyl-N,N-dimethyl-N′-[[4-[5-(trifluoromethyl)-1,2,4-oxadiazol-3-yl]phenyl]methyl] oxamide]
≥ 80%: pest or weed control at 200 ppm [1] | pest or weed control at 200 ppm [2] | pest or weed control at 200 ppm [3] | inhibition at 20 ppm [4]

CCN(Cc1ccc(-c2noc(C(F)(F)F)n2)cc1)C(=O)C(N)=O [Compound 4.28, N′-ethyl-N′-[[4-[5-(trifluoromethyl)-1,2,4-oxadiazol-3-yl]phenyl]methyl] oxamide]
≥ 80%: pest or weed control at 200 ppm [1] | pest or weed control at 200 ppm [2] | pest or weed control at 200 ppm [3] | inhibition at 20 ppm [4]

CN(C)C(=O)C(=O)N(C)Cc1ccc(-c2noc(C(F)(F)F)n2)cc1 [Compound 4.29, N,N,N′-trimethyl-N'-[[4-[5-(trifluoromethyl)-1,2,4-oxadiazol-3-yl]phenyl]methyl] oxamide]
≥ 80%: pest or weed control at 200 ppm [1] | pest or weed control at 200 ppm [2] | pest or weed control at 200 ppm [3] | inhibition at 20 ppm [4]

CON(Cc1ccc(-c2noc(C(F)(F)F)n2)cc1)C(=O)C(=O)N(C)C [Compound 4.39, N′-methoxy-N,N-dimethyl-N′-[[4-[5-(trifluoromethyl)-1,2,4-oxadiazol-3-yl]phenyl]methyl] oxamide]
≥ 80%: pest or weed control at 200 ppm [1] | pest or weed control at 200 ppm [2] | pest or weed control at 200 ppm [3] | inhibition at 20 ppm [4]

CN(C(=O)C(=O)NCc1ccc(-c2noc(C(F)(F)F)n2)cc1)C1CCOC1 (centres unmarked) [Compound 4.41, N′-methyl-N′-tetrahydrofuran-3-yl-N-[[4-[5-(trifluoromethyl)-1,2,4-oxadiazol-3-yl]phenyl]methyl] oxamide]
≥ 80%: pest or weed control at 200 ppm [1] | pest or weed control at 200 ppm [2] | pest or weed control at 200 ppm [3] | inhibition at 20 ppm [4]

CNC(=O)C(=O)NCc1ccc(-c2noc(C(F)(F)F)n2)cc1 [Compound 4.47, N-methyl-N′-[[4-[5-(trifluoromethyl)-1,2,4-oxadiazol-3-yl]phenyl]methyl] oxamide]
≥ 80%: pest or weed control at 200 ppm [1] | pest or weed control at 200 ppm [2] | pest or weed control at 200 ppm [3] | inhibition at 20 ppm [4]

CCN(CC)C(=O)C(=O)NCc1ccc(-c2noc(C(F)(F)F)n2)cc1 [Compound 4.52, N′,N′-diethyl-N-[[4-[5-(trifluoromethyl)-1,2,4-oxadiazol-3-yl]phenyl]methyl] oxamide]
≥ 80%: pest or weed control at 200 ppm [1] | pest or weed control at 200 ppm [2] | pest or weed control at 200 ppm [3] | inhibition at 20 ppm [4]

CCN(C)C(=O)C(=O)NCc1ccc(-c2noc(C(F)(F)F)n2)cc1 [Compound 4.54, N′-ethyl-N′-methyl-N-[[4-[5-(trifluoromethyl)-1,2,4-oxadiazol-3-yl]phenyl]methyl] oxamide]
≥ 80%: pest or weed control at 200 ppm [1] | pest or weed control at 200 ppm [2] | pest or weed control at 200 ppm [3] | inhibition at 20 ppm [4]

CCONC(=O)C(=O)NCc1ccc(-c2noc(C(F)(F)F)n2)cc1 [Compound 4.55, N′-ethoxy-N-[[4-[5-(trifluoromethyl)-1,2,4-oxadiazol-3-yl]phenyl]methyl] oxamide]
≥ 80%: pest or weed control at 200 ppm [1] | pest or weed control at 200 ppm [2] | pest or weed control at 200 ppm [3] | inhibition at 20 ppm [4]

CC(C)(C)NC(=O)C(=O)NCc1ccc(-c2noc(C(F)(F)F)n2)cc1 [Compound 4.56, N′-tert-butyl-N-[[4-[5-(trifluoromethyl)-1,2,4-oxadiazol-3-yl]phenyl]methyl] oxamide]
≥ 80%: pest or weed control at 200 ppm [1] | pest or weed control at 200 ppm [2] | pest or weed control at 200 ppm [3] | inhibition at 20 ppm [4]

CONC(=O)C(=O)NCc1ccc(-c2noc(C(F)(F)F)n2)cc1 [Compound 4.58, N′-methoxy-N-[[4-[5-(trifluoromethyl)-1,2,4-oxadiazol-3-yl]phenyl]methyl] oxamide]
≥ 80%: pest or weed control at 200 ppm [1] | pest or weed control at 200 ppm [2] | pest or weed control at 200 ppm [3] | inhibition at 20 ppm [4]

O=C(NCc1ccc(-c2noc(C(F)(F)F)n2)cc1)C(=O)N1CCOCC1 [Compound 4.59, 2-morpholino-2-oxo-N-[[4-[5-(trifluoromethyl)-1,2,4-oxadiazol-3-yl]phenyl]methyl] acetamide]
≥ 80%: pest or weed control at 200 ppm [1] | pest or weed control at 200 ppm [2] | pest or weed control at 200 ppm [3] | inhibition at 20 ppm [4]

CON(C)C(=O)C(=O)N(Cc1ccc(-c2noc(C(F)(F)F)n2)cc1)OC [Compound 4.65, N,N′-dimethoxy-N-methyl-N′-[[4-[5-(trifluoromethyl)-1,2,4-oxadiazol-3-yl]phenyl]methyl] oxamide]
≥ 80%: pest or weed control at 200 ppm [1] | pest or weed control at 200 ppm [2] | pest or weed control at 200 ppm [3] | inhibition at 20 ppm [4]

CCN(CC)C(=O)C(=O)N(Cc1ccc(-c2noc(C(F)(F)F)n2)cc1)OC [Compound 4.69, N,N-diethyl-N′-methoxy-N′-[[4-[5-(trifluoromethyl)-1,2,4-oxadiazol-3-yl]phenyl]methyl] oxamide]
≥ 80%: pest or weed control at 200 ppm [1] | pest or weed control at 200 ppm [2] | pest or weed control at 200 ppm [3] | inhibition at 20 ppm [4]

CCN(C)C(=O)C(=O)N(Cc1ccc(-c2noc(C(F)(F)F)n2)cc1)OC [Compound 4.73, N-ethyl-N′-methoxy-N-methyl-N′-[[4-[5-(trifluoromethyl)-1,2,4-oxadiazol-3-yl]phenyl]methyl] oxamide]
≥ 80%: pest or weed control at 200 ppm [1] | pest or weed control at 200 ppm [2] | pest or weed control at 200 ppm [3] | inhibition at 20 ppm [4]
